Experimental data reported in patent publication US20040102454A1, “Phenylahistin and the phenylahistin analogs, a new class of anti-tumor compounds” (priority 1998, published 2004).
“And” between values parts separate entries of the source, which are not always exact repeats. Identical values can stand only once.

Assays:
[1] = test system: B16-F10 Melanoma (murine melanoma); experiment: Tumor Panel Screen, Resazurin cytotoxicity assay; format: cell-based
Description: (§1) The following cell lines (source in parentheses) were used: HT29 (human colon tumor; ATCC; HTB-38), PC3 (human prostate tumor; ATCC; CRL-1435), MDA-MB-231 (human breast tumor; ATCC; HTB-26), NCI-H292 (human non-small cell lung tumor; ATCC; CRL-1848), OVCAR-3 (human ovarian tumor; ATCC; HTB-161), B16-F10 (murine melanoma; ATCC; CRL-6475) and CCD-27 sk (normal human fibroblast; ATCC; CRL-1475). Cells were maintained at subconfluent densities in their respective culture media.
(§2) Cytotoxicity assays were performed as described above in Example 4, using Resazurin fluorescence as an indicator of cell viability.

[2] = test system: CCD-27sk Fibroblast (normal human fibroblast); experiment: Tumor Panel Screen, Resazurin cytotoxicity assay; format: cell-based
Description: as §1, §2

[3] = test system: HT-29 Colon (human colon tumor); experiment: Tumor Panel Screen, Resazurin cytotoxicity assay; format: cell-based
Description: as §1, §2

[4] = test system: MDA-MB-231 Breast (human breast tumor); experiment: Tumor Panel Screen, Resazurin cytotoxicity assay; format: cell-based
Description: as §1, §2

[5] = test system: NCI-H292 Lung (human non-small cell lung tumor); experiment: Tumor Panel Screen, Resazurin cytotoxicity assay; format: cell-based
Description: as §1, §2

[6] = test system: OVCAR-3 Ovary (human ovarian tumor); experiment: Tumor Panel Screen, Resazurin cytotoxicity assay; format: cell-based
Description: as §1, §2

[7] = test system: PC-3 Prostate (human prostate tumor); experiment: Tumor Panel Screen, Resazurin cytotoxicity assay; format: cell-based
Description: as §1, §2

[8] = test system: MES-SA (Taxol Sensitive) human uterine sarcoma tumor cell line; experiment: Drug resistant cell line pair, cytotoxicity; format: cell-based
Description: (§3) MES-SA (Taxol Sensitive) and MES-SA DX (Taxol Resistant). This cell line expresses elevated mdr-1 mRNA and P-glycoprotein (an extrusion pump mechanism). Pretreatment with cyclosporin-A (CsA) blocks P-glycoprotein and reinstates activity in the resistant cell line for those compounds for which the resistance is due to elevated P-glycoprotein.

[9] = test system: MES-SA DX (Taxol Resistant) human uterine sarcoma tumor cell line; experiment: Drug resistant cell line pair, cytotoxicity; format: cell-based; details: MES-SA DX Resistant
Description: as §3

[10] = test system: HL-60 (Mitoxantrone-Sensitive) human acute promyelocytic leukemia cell line; experiment: Drug resistant cell line pair, cytotoxicity; format: cell-based; details: HL-60 Sensitive
Description: 2) Human Acute Promyelocytic Leukemia Cell Line Pair: HL-60 (Mitoxantrone-Sensitive) and HL-60/MX-2 (Mitoxantrone-Resistant)
This cell line is considered to have atypical drug resistance properties with altered topoisomerase II catalytic activity without overexpression of P-glycoprotein.

[11] = test system: HL-60/MX-2 (Mitoxantrone-Resistant) human acute promyelocytic leukemia cell line; experiment: Drug resistant cell line pair, cytotoxicity; format: cell-based; details: HL-60 Resistant
Description: HL-60 (Mitoxantrone-Sensitive) and HL-60/MX-2 (Mitoxantrone-Resistant) This cell line is considered to have atypical drug resistance properties with altered topoisomerase II catalytic activity without overexpression of P-glycoprotein.

[12] = test system: tubulin in Human umbilical vein endothelial cells (HuVEC); experiment: Action on microtubule function, staining for α-tubulin; format: cell-based; details: 2 μM, thirty minutes exposure
[13] = test system: Caspase-3 in Jurkat cells; experiment: Activation of the caspase cascade; format: cell-based
Description: Several enzymes in the caspase cascade are activated during apoptosis, including Caspase-3, -8 and-9. The activity of Caspase-3 was monitored in Jurkat cells following treatment with t-butyl-phenylahistin.

HuVEC monolayer = HuVEC monolayer permeability to FITC-Dextran; format: cell-based, human
Description: This vascular collapse is preceded by a rapid induction of vascular cell permeability initially to electrolytes and soon after to large molecules. The enhanced permeability of HuVEC cells to a fluorescent-labeled dextran is used as a proxy assay for vascular collapse.

HT-29 human colon tumor = experiment: HT-29 Human Colon Tumor Xenograft Model; format: in vivo, nude mice
Description: Animals used were (exceptions are indicated for individual studies): female nude mice (nu/nu) between 5 and 6 weeks of age (˜20 g, Harlan); group size was 9-10 mice per group unless otherwise indicated. The selected novel compound was administered as monotherapy via the intraperitoneal (i.p.) route at the doses indicated for the individual study; for the combination studies the selected reference chemotherapy agents were injected 15-30 min prior to the compound. Vehicles used in these studies were: 12.5% DMSO, 5% Cremaphor and 82.5% peanut oil for the selected novel compounds; (1:3) Polysorbate 80:13% ethanol for taxotere; […] Saline dilutions are used to achieve the injection concentrations used for the reference compounds. Animals were implanted subcutaneously (s.c.) by trocar with fragments of HT-29 tumors harvested from s.c. growing tumors in nude mice hosts. […] CPT-11 was administered intraperitoneally on days 1, 8 and 15 (qw×3).

[14] = test system: DU-145 human prostate tumor; experiment: DU-145 Human Prostate Tumor Xenograft Model; format: in vivo, nude mice; details: alone and in combination with taxotere
Description: Male mice were implanted s.c. by trocar with fragments of DU-145 tumors harvested from s.c. growing tumors in nude male mice hosts. When the tumors reached ˜5 mm×5 mm ( at about 13-17 days) the animals were matched into treatment and control groups. The remainder of the study proceeded as for the HT-29 model, using taxotere as the standard chemotherapy agent.
In this model unless otherwise noted for the individual study, test compound was administered via the intraperitoneal route on Days 1, 3, 5, 8 and 11 (q3d×5); taxotere was administered intravenously on Days 1, 3 and 5 (q2d×3).
The study involved an assessment of t-butyl-phenyalhistin alone and in combination with taxotere.

MCF-7 human breast tumor = experiment: MCF-7 Human Breast Tumor Xenograft Model; format: in vivo, nude mice; details: in combination with taxotere; compound Days 1, 2, 3, 4, and 7
Description: Female nude mice (˜20 g) were implanted s.c. with 21-day release estrogen (0.25 mg) pellets 24 hours prior to the s.c. implantation with MCF-7 tumor fragments (harvested from s.c. tumors in nude mice hosts). The study then proceeded as described for the HT-29 model, using taxotere as the standard chemotherapy agent.
In this model unless otherwise noted for the individual study, the novel compound was injected via the intraperitoneal route daily on Days 1-5, inclusive (qd×5); taxotere was administered intravenously on Days 1, 3 and 5 (qod×3).
This study considered the effects of t-butyl-phenylahistin in the MCF-7 human breast tumor xenograft model. The doses of the compound were administered on Days 1, 2, 3, 4, and 7; Taxotere was administered on Days 1, 3 and 7.

T. rubrum isolate #1 = experiment: Antifungal susceptibility testing, broth dilution (NCCLS M38-A); format: cell-based, Trichophyton rubrum; details: dermatophytes
Description: Antifungal susceptibility testing was accomplished according to the methods outlined in the National Committee for Clinical Laboratory Standards, M38-A “Reference Method for Broth Dilution Antifungal Susceptibility Testing of Conidium-Forming Filamentous Fungi; Approved Standard.” This includes testing in RPMI-1640 with glutamine and without bicarbonate, an inoculum size of 0.4-5×10^4, and incubation at 30 or 35° C. for 48 hours. […] Drug concentrations were 0.03-16 μg/ml for the investigational compounds, 0.015-8 μg/ml for itraconazole and griseofulvin.
The minimum lethal concentration (MLC) was determined by plating […] from the MIC concentration and each concentration above the MIC. […] When a MIC was obtained, a minimum fungicidal concentration (MFC) was determined to assess the fungistatic/fungicidal nature of the compound. […] The compound is scored as fungistatic if the cells are able to resume growth and fungicidal if no regrowth is possible because the compound had killed the organisms.

## CC(C)(C)c1[nH]cnc1/C=C1\NC(=O)[C@H](Cc2ccccc2)NC1=O [t-butyl-phenylahistin]
[1]
  % Cytotoxicity, Mean: 74%
  IC50: 736 nM
[2]
  % Cytotoxicity, Mean: 45%
  IC50: > 20000 nM
[3]
  % Cytotoxicity, Mean: 88%
  IC50: 420 nM
[4]
  % Cytotoxicity, Mean: 65.5%
  IC50: 387 nM
[5]
  % Cytotoxicity, Mean: 65%
  IC50: 384 nM
[6]
  % Cytotoxicity, Mean: 37%
  IC50: > 20000 nM
[7]
  % Cytotoxicity, Mean: 59.5%
  IC50: 174 nM
[8]; CsA Pretreat
  IC50: 162 nM
[8]; No CsA
  IC50: 144 nM and 122 nM
[9]; CsA Pretreat
  IC50: 622 nM
[9]; No CsA
  IC50: 825 nM and 694 nM
[10]
  IC50: 255 nM
[11]
  IC50: 175 nM
[12]
  microtubule depolymerization: induced microtubule depolymerization
[13]
  caspase-3 activation: activated in a dose-dependent manner
HuVEC monolayer
  time to induction of HuVEC monolayer permeability: ≤ 1 h
HuVEC monolayer; FITC-Dextran
  HuVEC monolayer permeability: induced significant HuVEC monolayer permeability
HT-29 human colon tumor; combination with CPT-11
  Comments: Synergy
HT-29 human colon tumor; monotherapy 30 mg/kg ip q3dx5, study 2139
  NPI-Compound Result TGI %: No Effect
HT-29 human colon tumor; study 2139
  Exceed NCI Criterion (TGI 58%): Combination
HT-29 human colon tumor; t-butyl-phenylahistin 30 mg/kg ip q3dx5 + CPT-11 100 ip qwx3, p < 0.05 vs Control and vs CPT-11 Alone
  Combination Results TGI %: 77.7%
[14]
  tumor growth inhibition indices (excised tumor weights): marked inhibition of tumor growth
MCF-7 human breast tumor
  effect on estimated tumor growth: significant potentiation of taxotere
T. rubrum isolate #1
  potency compared to griseofulvin: at least was equivalent in potency
Jurkat cells
  IC50: 165 nM
